Reference: patent publication US20040126385A1, “Methods and compositions for screening, diagnosing, or treating NF-kappaB related disease” (priority 2001, published 2004)

How the values were obtained:
CSMLO-induced tumors = assay: Tumor growth in mouse tumor model (CSMLO cells implanted in female A-J mice); type: in vivo
Procedure: FIG. 1. Inhibition of growth of tumors by Go6976. Tumors were generated in female A-J mice by implantation of CSMLO cells (10^6) on day 0 (indicated by the arrow). Go6976 (0.5 ml of 0.05 mM solution in 0.1% DMSO) was administered 48 h later to a group of five animals, twice a week locally at the site of implantation of cells (♦). Control group (five animals) received 0.5 ml of 0.1% DMSO similarly (□). Growth of tumors was monitored by measurements of tumor volume at regular intervals (32).
(§1) FIG. 2. Regression of tumors by Go6976. (A) CSMLO cells were implanted on day 0 (indicated by the arrow) as for FIG. 1. Go6976 was administered on day 21 (indicated by the arrow), locally under the tumors of the five animals with comparatively larger tumors (▪). Another five animals received the same volume of 0.1% DMSO (♦) on the same day, and the control group of five animals received nothing (□). (B) One representative of five animals from each group. Animals 1 and 2 are DMSO- and Go6976-treated non-tumor-bearing animals, respectively. Animal 3 is tumor-bearing and without treatment. Animals 4 and 5 represent tumor-bearing groups treated with DMSO and Go6976, respectively. Animal 6 is an A-J mouse that received nothing.
Animal model. […] Palpable tumors were consistently detected within 10-15 days following implantation of the cells. Body weight and tumor volumes (32) were monitored weekly. […]

NF-κB = assay: Level of active NF-κB in nuclear extracts by EMSA; type: cell-based, mouse; conditions: CSMLO cells
Procedure: FIG. 3. Active NF-κB complex in CSMLO cells: Stimulation by PMA and inhibition by Go6976. (A) Nuclear extracts (5 μg protein) from control and PMA-treated (20 ng/ml for 18 h) CSMLO cells were incubated in a standard EMSA reaction mixture containing [γ-^32P]-labeled double-stranded oligonucleotide plus Go6976 at the indicated μM concentrations for […] and subjected to nondenaturing PAGE (7, 31). The autoradiographic signals of the retarded NF-κB-[^32 P]DNA complex is indicated by the upper arrow and the free [γ-^32P]-labeled probe by the lower arrow. (B) The NF-κB-[^32P]DNA complex was characterized by supershift assay with anti-p50 (lanes 3 and 4) or p65 (B, lanes 5 and 6) antibodies. Nuclear extracts were incubated with specific antibodies for 15 min at room temperature, followed by incubation for an additional 30 min in the presence of [γ-^32p] double-stranded NF-κB oligonucleotide, and subjected to EMSA as described (7, 31). The supershifted complexes are indicated by the upper arrow.
Methods. Measurements of the level of active NF-κB by EMSA. The level of active NF-κB in the nuclear extracts of control and treated cells was determined by its DNA binding activity by EMSA as described 7, 30, 31). The [^32P]DNA-protein complex was identified as a retarded radioactive band in EMSA detected by autoradiography. […]

CSMLO cells = assay: Growth of CSMLO cells under culture conditions; type: cell-based, mouse; conditions: short-term drug treatment with 10 μM Go6976
Procedure: Materials. Mouse mammary adenocarcinoma cells in culture (CSMLO) were grown in complete medium supplemented with 10% FBS and growth factors as described (7, 11, 12). Anti-human ER antibody (SC543), anti-mouse ccD1 antibody, anti-p50, and anti-p65 antibodies for the NF-κB subunits were obtained from Santa Cruz Biotechnology. Rabbit polyclonal IgG raised against the conserved region of actin and anti-Flag (M2) monoclonal antibody were obtained from Sigma-Aldrich. The fluorescein-conjugated goat anti-mouse IgG was from Oncogene Science. Complementary strands of the oligonucleotide (5′-[…]-3′) containing the NF-κB motif (bold faced) were custom synthesized by Integrated DNA Technologies (Coralville, Iowa). The double-stranded NF-κB-oligonucleotide was end-labeled with [γ-^32P]ATP (NEN) and T4 kinase (New England Biolabs) as described (7), and was used for electrophoretic mobility shift assay (EMSA). Hydrocortisone, insulin, DTT, dimethyl sulfoxide (DMSO), and phenylmethylsulfonyl fluoride were obtained from Sigma. Hybond nitrocellulose membrane and ECL (enhanced chemiluminescence) immunodetection kits were obtained from Amersham Pharmacia. Go6976, a nonglyosidic indolcarbazole, and an inhibitor of protein kinase C alpha and beta was purchased from Calbiochem-Novabiochem (28, 29).

[1] = tested on: tumor, liver, and lung tissues; assay: Histology (H&E) of tumor, liver and lung tissues of tumor-bearing animals; type: in vivo, mouse
Text: FIG. 4. Histology of tissues from untreated and Go6976-treated tumor-bearing animals. Tumor growth and treatment conditions are the same as described for FIG. 1. Tumor, liver, and lung tissues from untreated and treated tumor bearing animals were dissected 11 days after the initiation of treatment and 32 days after implantation of the cells. Tissues were processed for hematoxylin/eosin (H&E) staining, examined under a light microscope, and photographed at the indicated magnifications. Arrows show mitotic cells in untreated tumor tissue. Residual tumor (T) and necrotic cells (N) of the treated tumor are shown. Stars in the treated block indicate pycnotic cells with apparent fragmentation and clumping of nuclear DNA.
(§2) Animal model. The tumorigenic potential of CSMLO and dnIkkβ-expressing stable transfectants was examined in female A-J mice 2-3 weeks old. For each mouse, 1.0 s×10^6 cells were implanted under the dorsal skin. Palpable tumors were consistently detected within 10-15 days following implantation of the cells. Body weight and tumor volumes (32) were monitored weekly. Go6976 (0.5 ml of 0.05 mM stock solution in 0.1% DMSO) was administered to each animal locally two times a week. The control group received the same volume of the solvent (0.5 ml of 0.1%).

ccD1 = assay: Level of ccD1 by Western blot analysis; type: cell-based, mouse; conditions: CSMLO cells transfected with dnIkkβ
Text: FIG. 5. Inhibition of NF-κB activation and down stream events by stable expression of dominant-negative IκB-kinase β (dnIkkβ). (A Upper) dnIkkβ-Expressing transfectant cells by light microscopy (i), 4′,6-diamidino-2-phenylindole (DAPI)-stained nuclei (ii), and immunofluorescence with anti-FLAG antibody in the presence of the secondary antibody (iii). The positive signals show dnIkkβ-conjugated FLAG protein in the cytoplasm. (Lower) Processed vector-control plasmid-transfected CSMLO cells in which no FLAG protein could be detected (vi). (B Upper) Active NF-κB was determined by its [γ-^32P]DNA binding activity by EMSA, in three dnIkkβ-expressing stable transfectants (dnIkkβ1-1, dnIkkβ1-3, and dnIkkβ1-5) and (Lower) in parent CSMLO cells and vector control plasmid expressing transfectant (vect1-5). (C Upper) The level of ccD1 in the same three-dnIkkβ-expressing CSMLO and vector control transfected cells, as measured by Western blot analysis. (Lower) Actin analyzed similarly by immunodetection with anti-β-actin antibody that serves as a loading control.

[2] = Physical condition and lethality of treated mice; type: in vivo
Procedure: as §1, §2

With `Cn1c2ccccc2c2c3c(c4c5ccccc5n(CCC#N)c4c21)CNC3=O` [Go6976] the “tumor growth (tumor volume)” value (CSMLO-induced tumors; Go6976 0.5 ml of 0.05 mM in 0.1% DMSO, local, twice a week, started within 48 h of implantation of CSMLO cells, vs DMSO-treated group) was “substantial inhibition of tumor growth”, the “regression of full-grown tumors (tumor volume)” value (CSMLO-induced tumors; Go6976 administered locally 21 days after implantation of CSMLO cells, all of five animals) was “regressed sharply” and the “basal level of NF-κB” value (NF-κB) was “did not affect the basal level of NF-κB”. The “PMA-induced elevation of NF-κB activation” value (NF-κB; PMA 20 ng/ml, simultaneous treatment with Go6976 for 48 h) was “inhibited in a concentration-dependent manner”, the “growth of cells under culture conditions” value (CSMLO cells) was “not affected” and the “histological changes in tumor tissue” value ([1]; Go6976-treated tumor-bearing animals, 11 days after initiation of treatment) was “extensive necrosis”. For the same molecule, the “pycnotic cells in residual tumor tissue (suggestive of DNA fragmentation and apoptosis)” value ([1]; treated animal, magnification 100×) was “a large number of pycnotic cells with nuclear clumping”, the “pathological changes in liver and lung tissue” value ([1]; tumor-bearing or non-tumor-bearing animals, localized Go6976 treatment) was “did not show any microscopically detectable pathological changes” and the “transactivation of ccD1” value (ccD1) was “blocked transactivation of ccD1”. For the same molecule, the “physical defects as judged by body weight and agility” value ([2]; mice without tumor treated with Go6976) was “did not show any apparent physical defects” and the mouse lethality ([2]; mouse, in vivo) was “without mouse lethality”.
